Reference: patent US5487898A, “Compositions and method for the sublingual or buccal administration therapeutic agents” (Abbott Laboratories, priority 1994, dated 1996)
Read-outs that look alike come from different tables or passages of the source.

Key:
[1] = dog, in vivo
Protocol: The dose of administered leuprolide acetate mid the measurement of plasma leuprolide concentration are the same as described for FIG. 1.
In this and subsequent Examples, bioavailability is calculated and expressed either in terms of Area Under Curve (AUC) or as percent (%) bioavailability. AUC is determined by calculating the area under the curve of plots of time (X-axis) versus plasma concentration (Y-axis) of the administered polypeptide. Typically, AUC is determined over a 6 (0-6) or 8 (0-8) hour period. Percent bioavailability is calculated as the ratio [formula] Increases in AUC and/or bioavailability indicate increased bioavailability of the administered polypeptide.
In one such composition the pH value was adjusted to a value of about 7.0 with NaOH.
The liquid compositions were sublingually administered to dogs (0.1 ml/10 kg body wt) and the plasma levels of leuprolide measured over 8 hours.

[2] = dog, in vivo; remark: listed apart in the source

Percent Bioavailability ([1]; pH 5.6): 24.5% | Percent Bioavailability ([1]; pH 7): 2.7% | bioavailability, AUC 0-8 hours vs peppermint oil concentration (FIG. 4) [2]: increases the bioavailability
Structure (SMILES): CCNC(=O)[C@@H]1CCCN1C(=O)[C@H](CCCNC(=N)N)NC(=O)[C@H](CC(C)C)NC(=O)[C@@H](CC(C)C)NC(=O)[C@H](Cc1ccc(O)cc1)NC(=O)[C@H](CO)NC(=O)[C@H](Cc1c[nH]c2ccccc12)NC(=O)[C@H](Cc1c[nH]cn1)NC(=O)[C@@H]1CCC(=O)N1 [leuprolide acetate, 5-oxo-L-prolyl-L-histidyl-L-tryptophanyl-L-seryl-L-tyrosyl-D-leueyl-L-leueyl-L-arginyl-L-prolyl-ethylamide]
bioavailability vs benzoic acid concentration (FIG. 3) [1]: directly proportional to benzoic acid concentration
